Measurements taken from patent US9833497B2, “Human originated EGF domain proteins and use of the same” (CHENGDU SOURCEBIO LIMITED-LIABILITY COMPANY, priority 2013, dated 2017).

What was measured:
Type in all cases: cell-based
Pseudomonas aeruginosa = assay: MIC against Gram-negative bacteria: Pseudomonas aeruginosa
Experimental: (§1) 1. Gram-negative bacteria, such as E. coli BL21, Pseudomonas aeruginosa, Klebsiella pneumonia, Enterobacter cloacae, Aeromonas hydrophila, Citrobacter diversus, Moraxella catarrhalis, Proteus mirabilis, Proteus vulgaris, Serratia marcescens, etc were streaked on solid LB medium and cultured respectively. Then, typical clones were picked, inoculated into common liquid LB medium respectively, and cultured at 37° C. with shaking at 185 rpm until the McFarland specific turbidity was 0.5. The bacterial culture of each of Gram-negative bacteria was centrifuged at 4000×g for 3 min, the supernatant was discarded, and the thalli were resuspended with fresh LB medium.
(§2) 2. The above-mentioned bacterial suspensions were diluted and inoculated into 96-well plates with the final concentration of the bacterial suspension being 5×10^5 CFU/mL per well.
(§3) 3. Each of the purified human-originated EGF domain proteins (PRT1 to PRT1498 in Table 1) was added to each of the above wells and subjected to two-fold serial dilution in concentration. Three parallel wells were set up for each concentration in the gradient.
(§4) 4. The above-mentioned 96-well plates were placed and cultured at 37° C. in shaking incubator shaking at 175 rpm. […] The minimal inhibitory concentration MIC is defined as the lowest concentration of the recombinant protein at which there is no growth of the bacteria.

Serratia marcescens = assay: MIC against Gram-negative bacteria: Serratia marcescens
Experimental: as §1, §2, §3, §4

Klebsiella pneumonia = assay: MIC against Gram-negative bacteria: Klebsiella pneumonia
Experimental: as §1, §2, §3, §4

E. coli DH5α = assay: Antibacterial activity: MIC and growth curve against E. coli DH5α in 96-well plate; settings: minimal inhibitory concentration against E. coli DH5α; 96-well plate, 5×10^5 CFU/mL, 37° C., judged after 8 h
Experimental: 1. E. coli DH5α was exemplified. E. coli DH5α was streaked and cultured on LB solid medium. Then, a typical clone was picked and inoculated into common LB liquid medium, cultured at 37° C. with shaking at 185 rpm until the logarithmic growth phase was reached (OD600 of about 0.5). The bacterial culture was centrifuged at 4000×g for 3 min, the supernatant was discarded, and the thalli were resuspended with fresh LB medium.
2. The above-mentioned bacterial suspension was diluted and inoculated into a 96-well plate with the total volume of 100 μL per well and a bacterial count of 5×10^5 CFU/mL.
3. The recombinant protein hF VII-EGF1 was added to the above-mentioned wells with the final protein concentration in the well of the highest protein concentration being 50 μg/mL. Basing on this final concentration, a two-fold serial dilution was performed till a protein concentration gradient consisting of 50, 25, and 12.5 μg/mL was set up. Three parallel wells were set up for each concentration in the gradient.
as §4, with “plate was” for “plates were”, “rpm. Samples were taken every 30 min, the absorbance values were determined at 600 nm wavelength under a ultra violet spectrophotometer, and an inhibition curve was plotted.” for “rpm.”
According to the experimental procedures in Example 14, the minimal inhibitory concentrations (MIC, μg/mL) of the other human-originated EGF domain proteins (PRT2 to PRT1498 in Table 1) for E. coli DH5α were determined.

Proteus vulgaris = assay: MIC against Gram-negative bacteria: Proteus vulgaris
Experimental: as §1, §2, §3, §4

E. coli BL21 = assay: MIC against Gram-negative bacteria: E. coli BL21; settings: for MIC / MIC (μg/mL) E. coli BL21: E. coli BL21
Experimental: as §1, §2, §3, §4

Aeromonas hydrophila = assay: MIC against Gram-negative bacteria: Aeromonas hydrophila
Experimental: as §1, §2, §3, §4

Moraxella catarrhalis = assay: MIC against Gram-negative bacteria: Moraxella catarrhalis
Experimental: as §1, §2, §3, §4

Proteus mirabilis = assay: MIC against Gram-negative bacteria: Proteus mirabilis
Experimental: as §1, §2, §3, §4

Enterobacter cloacae = assay: MIC against Gram-negative bacteria: Enterobacter cloacae
Experimental: as §1, §2, §3, §4

Citrobacter diversus = assay: MIC against Gram-negative bacteria: Citrobacter diversus
Experimental: as §1, §2, §3, §4

[1] = P. aeruginosa, 10 h cultivation at 37° C., 5×10^5 CFU/mL
[2] = S. marcescens, 10 h cultivation at 37° C., 5×10^5 CFU/mL
[3] = K. pneumonia, 10 h cultivation at 37° C., 5×10^5 CFU/mL
[4] = P. vulgaris, 10 h cultivation at 37° C., 5×10^5 CFU/mL
[5] = 10 h cultivation at 37° C., 5×10^5 CFU/mL
[6] = A. hydrophila, 10 h cultivation at 37° C., 5×10^5 CFU/mL
[7] = M. catarrhalis, 10 h cultivation at 37° C., 5×10^5 CFU/mL
[8] = P. mirabilis, 10 h cultivation at 37° C., 5×10^5 CFU/mL
[9] = E. cloacae, 10 h cultivation at 37° C., 5×10^5 CFU/mL
[10] = C. diversus, 10 h cultivation at 37° C., 5×10^5 CFU/mL
[11] = P. aeruginosa, 10 h cultivation at 37° C.
[12] = S. marcescens, 10 h cultivation at 37° C.
[13] = K. pneumonia, 10 h cultivation at 37° C.
[14] = P. vulgaris, 10 h cultivation at 37° C.
[15] = A. hydrophila, 10 h cultivation at 37° C.
[16] = M. catarrhalis, 10 h cultivation at 37° C.
[17] = P. mirabilis, 10 h cultivation at 37° C.
[18] = E. cloacae, 10 h cultivation at 37° C.
[19] = C. diversus, 10 h cultivation at 37° C.
[20] = 96-well plate, 5×10^5 CFU/mL, 37° C., 10 h
[21] = 10 h cultivation at 37° C., 5×10^5 CFU/mL, two-fold serial dilution

Substance | MIC (E. coli DH5α) [mg/L] | MIC (μg/mL) P. aeruginosa (Pseudomonas aeruginosa; [1]) [µg/mL] | MIC (μg/mL) S. marcescens (Serratia marcescens; [2]) [µg/mL] | MIC (μg/mL) K. pneumonia (Klebsiella pneumonia; [3]) [µg/mL] | MIC (μg/mL) P. vulgaris (Proteus vulgaris; [4]) [µg/mL] | MIC (μg/mL) E. coli BL21 (E. coli BL21; [5]) [µg/mL] | MIC (μg/mL) A. hydrophila (Aeromonas hydrophila; [6]) [µg/mL] | MIC (μg/mL) M. catarrhalis (Moraxella catarrhalis; [7]) [µg/mL] | MIC (μg/mL) P. mirabilis (Proteus mirabilis; [8]) [µg/mL] | MIC (μg/mL) E. cloacae (Enterobacter cloacae; [9]) [µg/mL] | MIC (μg/mL) C. diversus (Citrobacter diversus; [10]) [µg/mL] | also measured
PRT423 (QPNTCKDNGPCKQVCSTVGGSAICSCFPGYAIMADGVSCE; listed as Homo sapiens) | 12.5 | – | – | – | – | – | – | – | – | – | – | MIC (Pseudomonas aeruginosa; [1]): 12.5 mg/L; MIC (Serratia marcescens; [2]): 12.5 mg/L; MIC (Klebsiella pneumonia; [3]): 25 mg/L; MIC (Proteus vulgaris; [4]): 25 mg/L; MIC (E. coli BL21; [5]): 25 mg/L; MIC (Aeromonas hydrophila; [6]): 25 mg/L; MIC (Moraxella catarrhalis; [7]): 25 mg/L; MIC (Proteus mirabilis; [8]): 50 mg/L; MIC (Enterobacter cloacae; [9]): 50 mg/L; MIC (Citrobacter diversus; [10]): 12.5 mg/L
PRT841 (PEDECANGHHDCNETQNCHDQPHGYECSCKTGYTMDNMT; listed as Homo sapiens) | 12.5 | 12.5 | 12.5 | 50 | 50 | 25 | 50 | 50 | 12.5 | 12.5 | 12.5 | –
PRT925 (DINECHSDPCQNDATCLDKIGGFTCLCMPGFKGVHCE; listed as Homo sapiens) | 12.5 | – | – | – | – | – | – | – | – | – | – | MIC (Pseudomonas aeruginosa; [11]): 50 mg/L; MIC (Serratia marcescens; [12]): 12.5 mg/L; MIC (Klebsiella pneumonia; [13]): 12.5 mg/L; MIC (Proteus vulgaris; [14]): 50 mg/L; MIC (E. coli BL21; 10 h cultivation at 37° C.): 25 mg/L; MIC (Aeromonas hydrophila; [15]): 50 mg/L; MIC (Moraxella catarrhalis; [16]): 12.5 mg/L; MIC (Proteus mirabilis; [17]): 25 mg/L; MIC (Enterobacter cloacae; [18]): 25 mg/L; MIC (Citrobacter diversus; [19]): 25 mg/L
PRT213 (QNCTKTPCLPNAKCEIRNGIEACYCNMGFSGNGVTICE; listed as Homo sapiens) | 12.5 | 12.5 | 25 | 12.5 | 50 | 12.5 | 12.5 | 12.5 | 25 | 50 | 50 | –
PRT180 (DLDDCAGRACANGGTCVEGGGAHRCSCALGFGGRDCR; listed as Homo sapiens) | 12.5 | 12.5 | 12.5 | 12.5 | 25 | 12.5 | 25 | 25 | 50 | 50 | 12.5 | –
PRT156 (DINECDSNPCHHGGSCLDQPNGYNCHCPHGWVGANCE; listed as Homo sapiens) | 25 | 12.5 | 50 | 25 | 50 | 12.5 | 25 | 50 | 12.5 | 12.5 | 12.5 | –
PRT80 (TNVCDLNPCEHQSVCTRKPSAPHGYTCECPPNYLGPYCE; listed as Homo sapiens) | 12.5 | – | – | – | – | – | – | – | – | – | – | MIC (μg/mL) P. aeruginosa (Pseudomonas aeruginosa; Pseudomonas aeruginosa, 96-well plate, 5×10^5 CFU/mL, 37° C., 10 h): 12.5 µg/mL; MIC (μg/mL) S. marcescens (Serratia marcescens; Serratia marcescens, 96-well plate, 5×10^5 CFU/mL, 37° C., 10 h): 12.5 µg/mL; MIC (μg/mL) K. pneumonia (Klebsiella pneumonia; Klebsiella pneumonia, 96-well plate, 5×10^5 CFU/mL, 37° C., 10 h): 25 µg/mL; MIC (μg/mL) P. vulgaris (Proteus vulgaris; Proteus vulgaris, 96-well plate, 5×10^5 CFU/mL, 37° C., 10 h): 12.5 µg/mL; MIC (μg/mL) E. coli BL21 (E. coli BL21; [20]): 50 µg/mL; MIC (μg/mL) A. hydrophila (Aeromonas hydrophila; Aeromonas hydrophila, 96-well plate, 5×10^5 CFU/mL, 37° C., 10 h): 25 µg/mL; MIC (μg/mL) M. catarrhalis (Moraxella catarrhalis; Moraxella catarrhalis, 96-well plate, 5×10^5 CFU/mL, 37° C., 10 h): 25 µg/mL; MIC (μg/mL) P. mirabilis (Proteus mirabilis; Proteus mirabilis, 96-well plate, 5×10^5 CFU/mL, 37° C., 10 h): 12.5 µg/mL; MIC (μg/mL) E. cloacae (Enterobacter cloacae; Enterobacter cloacae, 96-well plate, 5×10^5 CFU/mL, 37° C., 10 h): 12.5 µg/mL; MIC (μg/mL) C. diversus (Citrobacter diversus; Citrobacter diversus, 96-well plate, 5×10^5 CFU/mL, 37° C., 10 h): 12.5 µg/mL
PRT1019 (NLDDCIAATCAPGSTCIDRVGSFSCLCPPGRTGLLCH; listed as Homo sapiens) | 12.5 | – | – | – | – | – | – | – | – | – | – | MIC (Pseudomonas aeruginosa; [11]): 12.5 mg/L; MIC (Serratia marcescens; [12]): 25 mg/L; MIC (Klebsiella pneumonia; [13]): 25 mg/L; MIC (Proteus vulgaris; [14]): 12.5 mg/L; MIC (E. coli BL21; 10 h cultivation at 37° C.): 50 mg/L; MIC (Aeromonas hydrophila; [15]): 12.5 mg/L; MIC (Moraxella catarrhalis; [16]): 12.5 mg/L; MIC (Proteus mirabilis; [17]): 50 mg/L; MIC (Enterobacter cloacae; [18]): 50 mg/L; MIC (Citrobacter diversus; [19]): 50 mg/L
PRT1088 (PVNPCCYYPCQHQGICVRFGLDRYQCDCTRTGYSGPNCT; listed as Homo sapiens) | 25 | – | – | – | – | – | – | – | – | – | – | MIC P. aeruginosa (Pseudomonas aeruginosa; [21]): 50 mg/L; MIC S. marcescens (Serratia marcescens; [21]): 50 mg/L; MIC K. pneumonia (Klebsiella pneumonia; [21]): 12.5 mg/L; MIC P. vulgaris (Proteus vulgaris; [21]): 25 mg/L; MIC E. coli BL21 (E. coli BL21; [21]): 50 mg/L; MIC A. hydrophila (Aeromonas hydrophila; [21]): 50 mg/L; MIC M. catarrhalis (Moraxella catarrhalis; [21]): 25 mg/L; MIC P. mirabilis (Proteus mirabilis; [21]): 12.5 mg/L; MIC E. cloacae (Enterobacter cloacae; [21]): 50 mg/L; MIC C. diversus (Citrobacter diversus; [21]): 50 mg/L
PRT476 (VVPVCRPNPCQNGATCSRHKRRSKFTCACPDQFKGKFCE; listed as Homo sapiens) | 12.5 | – | – | – | – | – | – | – | – | – | – | MIC against P. aeruginosa (Pseudomonas aeruginosa; [20]): 50 mg/L; MIC against S. marcescens (Serratia marcescens; [20]): 50 mg/L; MIC against K. pneumonia (Klebsiella pneumonia; [20]): 12.5 mg/L; MIC against P. vulgaris (Proteus vulgaris; [20]): 12.5 mg/L; MIC against E. coli BL21 (E. coli BL21; [20]): 12.5 mg/L; MIC against A. hydrophila (Aeromonas hydrophila; [20]): 12.5 mg/L; MIC against M. catarrhalis (Moraxella catarrhalis; [20]): 25 mg/L; MIC against P. mirabilis (Proteus mirabilis; [20]): 25 mg/L; MIC against E. cloacae (Enterobacter cloacae; [20]): 50 mg/L; MIC against C. diversus (Citrobacter diversus; [20]): 50 mg/L
PRT207 (RSSNCSAQCHNHGVCNHKQECHCHAGWAPPHCA; listed as Homo sapiens) | 12.5 | 12.5 | 50 | 50 | 25 | 50 | 50 | 50 | 12.5 | 12.5 | 12.5 | –
